What was measured:
BAK [1] = target: T1, BAK (Homo sapiens, UniProt Q16611); experiment: ligand-based 1D-NMR; format: binding
T1 sequence (Q16611 15-186): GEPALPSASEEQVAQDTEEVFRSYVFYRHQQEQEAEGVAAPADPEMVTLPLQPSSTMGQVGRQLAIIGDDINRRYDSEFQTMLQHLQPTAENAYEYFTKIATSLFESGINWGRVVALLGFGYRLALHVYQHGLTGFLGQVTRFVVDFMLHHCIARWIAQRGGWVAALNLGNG

BAK [2] = target: T1, BAK; experiment: ligand-based 1D-NMR, […] 2D-NMR titration, competitive TR-FRET, nanoDSF; format: binding

Row | SMILES | IC50 (BAK [1]) [µM] | IC50 (BAK [2]) [µM]
1 | Cc1ccc(Cl)c2sc(N)nc12 [H6, SJ572946] | 570 | 
2 | Cc1ccc(C)c2sc(N)nc12 [A3] |  | 1970

From PMC9485059 (iScience, 2022)
